One data set concerns KSHV+ PEL cell lines. Nature of the data set: CellTiter-Glo viability assay, KSHV+ cell line panel. The format is cell-based, human. How it is done:
(§1) Cell viability assays were performed by plating log-phase cells in RPMI complete media with 20% FBS at 1*10^5 cells/mL, with concentrations of 6-ETI or phospho-6-ETI ranging from 0.1 nM to 100 μM. ATP content at 24, 48 and 72 hours post-treatment was measured by the CellTiter-Glo kit (Promega, Madison, Wis.), or by Trypan blue assay as indicated. The LC50 for 6-ETI in each cell line was determined using online EC50 software at changbioscience.com or using GraphPad Prism to determine the LC50 for 6-ETI, phospho-6-ETI and nucleoside analogs in MM cell lines and primary MM patient samples.
KSHV+ primary effusion lymphoma (PEL) cell lines (BC1, BC2, BC3, BC5, BCBL1, BCP1), EBV+ lymphoblastoid cell line LCL9001, EBI+ diffuse large B-cell lymphomas (DLBCL) with immunoblastic features (IBL1, IBL4), and EBV+ effusion DLBCL BCKN1 were cultured in RPMI-1640 medium (Invitrogen) supplemented with 50 μg/mL Gentamicin (Sigma-Aldrich) and 10% or 20% heat-inactivated fetal bovine serum, respectively. Uninfected DLBCL cell lines (Ly2, Ly7) were cultured in IMDM (Invitrogen) supplemented with 50 μg/mL Gentamicin and 10% FBS. Multiple myeloma (MM) cell lines U266 and MM1S were cultured in RPMI supplemented with 15%FBS and 50 μg/mL Gentamicin, while JJN3 was cultured in 40% IMDM/40% DMEM plus 20% FBS supplemented with 50 μg/mL Gentamicin. Hodgkin's lymphoma (L428, L1236) and Burkitt's lymphoma cell lines (BJAB, Namalwa)were maintained in RPMI-1640 supplemented with Gentamicin and 10% FBS. All of the PEL cell lines and IBL1 were established in our laboratory from lymphomatous effusions except BCBL1, which was obtained from the AIDS and Cancer Specimen Bank. Burkitt lymphoma cell lines Namalwa and BJAB as well as the multiple myeloma cell line U266 were obtained from the American Type Culture Collection (ATCC). JJN3 cell line and Hodgkin cell lines (L428, L1236) were obtained from DSMZ. DLBCL cell lines LY2 and LY7 were provided by Riccardo Dana-Rivera (Columbia University), MM1S cell line was provided by Dr. Giorgio Inghiraini lab at Weill Cornell Medicine. […]
A general note: Cellular ATP, detected with luciferase, serves as a proxy for viable cell number.

The subject of the next data set is IBL1 cells. Nature of the data set: Trypan-blue exclusion viability, non-PEL cell line. Conditions: Homo sapiens; selected non-PEL cell line (IBL1), 48 hours; read-out: LC50 by Trypan-blue exclusion. It counts as cell-based. The procedure: as §1
Data set [1] deals with KSHV latent proteins LANA, vFLIP and vCyclin. Put plainly: Western blot of KSHV latent proteins. The format is cell-based. The procedure: For all intracellular signaling studies, cell lines were plated at 2*10^5 cells/mL or at indicated densities in RPMI-1640 with 20% FBS, and treated with the stated concentrations of 6-ETI, from 6 to 48 hours. Immunoblotting was performed using the following antibodies: PARP (BD Pharmingen, 556494), LC3B (Cell Signaling, 2775S), phospho-l-listone H2AX.X S139 (Cell Signaling, 2577S), GAPDH (Gene Tex, GTX100118), ADK (Santa Cruz, sc-365470) vFLIP 6/14 antibody was a gift from Mary Collins at University College of London, vCyclin (Abcam, ab12208), LANA (Advanced Biotechnologies, 13-210-100), β-Actin (Sigma A5316), p65 (Cell Signaling C22B4, p50 (Cell Signaling 3035), October-1 (Cell Signaling 4428), p-IκBα (Santa Cruz 3-9 sc-8404), IκBα (Santa Cruz C-21 sc-371), pIKKα/β (ser 176)(Santa Cruz sc-21661), IKKα (Santa Cruz H-744 sc-7218).
On the technique in general: Immunoblotting shows a protein as a band on a membrane.

Data set [2] deals with DNA synthesis in BC3 cells. Nature of the data set: Click-iT EdU DNA synthesis assay, BC3. The format is cell-based, human. Conditions: BC3, 1 μM, 24 hours. The procedure:
BC3 and U266 cells were seeded at a density of 0.5 million cells/ml and treated with DMSO only, 1 μM or 1.0 μM 6-ETI for BC3 cells and 0.5 μM 6-ETI for U266 cells for 24 hrs. At 24 hrs post 6-ETI treatment, 0.5 million cells of each of the treated conditions were labeled with 10 μM of EdU for 2 hours then fixed for 30 min using 2% paraformaldehyde supplemented with 0.3M sucrose. Cells were then washed in PBS and perineabilized with 0.2% saponin, PBS with 1% BSA and 0.3M sucrose for 20 min at room temperature. During this incubation time, a click-iT cocktail mix containing, click iT reaction buffer, CuSO4, alexafluor488 and click iT reaction buffer additive was prepared according to the manufacturer's instructions. Cells were washed in PBS after permeabilization and the click-iT cocktail mix was added for 30 min at room temperature in the absence of light. To visualize DNA, cells were counterstained with Hoechst (1:1000) for another 30 min then washed and resuspended in PBS with 1% BSA. 20 μl of the resuspended cells were combined with 20 μl of mounting media Fluoromount-G (Southern biotech) and cells were mounted on Ibidi μ-slides. Cells were imaged using DeltaVision image restoration microscope (Rockefeller center).

For data set [3], the system named is BC3NFRen-luc #3 PEL xenograft. Nature of the data set: PEL xenograft model (BC3NFRen-luc #3 in NOD-SCID mice). It counts as in vivo. The procedure: The BC3 in vivo xenograft model was set up as previously described (6). Essentially, ˜4-6 week old male NOD-SCID mice (Jackson Labs Stock# 001303) were injected intraperitoneally (I.P.) with 1*10^7 BC3NFRen-luc #3 cells and followed by in vivo imaging every three days. After imaging on day 5 to confirm establishment of the tumor, the mice were randomized to vehicle, low dose and high dose cohorts, with average tumor burden distributed evenly across the groups. Each dose cohort contained 10 mice. Mice were treated for nine days beginning at randomization with vehicle (PBS-Tween80), low dose 6-ETI (150 mg/kg/day), or high dose 6-ETI (300 mg/kg/day). Mice were treated with 200 mg/kg of the 6-ETI analogs (phospho-6ETI and 6-ETI cAMP) for 9 days. We monitored mice for tumor growth by live imaging and weighing, with sacrifice point determined to be a net gain or loss of 10% body weight over a week. Upon reappearance of refractory tumors, mice were re-treated for a further 9-day interval, and followed for a total of 100 days. Compound effects were assessed on overall survival, progression-free survival and tumor burden by Kaplan-Meier curves generated using GraphPad Prism software, and determined p values by 2-tailed analysis with log-rank tests.

For the compound `CCSc1ncnc2c1ncn2[C@@H]1O[C@H](CO)C(O)[C@@H]1O` (stereo partly shown) [Compound 6-ETI, 6-ethylthioinosine], the CC50 in the data set on KSHV+ PEL cell lines (Homo sapiens, 48 h, read-out: LC50) was 30 to 435 nM; in the data set with IBL1 cells it was 134000 nM. In the data set on KSHV+ PEL cell lines (KSHV- versus KSHV+ cell lines), the “average fold-difference in sensitivity” value is listed as about 275 X. Moreover, in the data set on KSHV+ PEL cell lines (PEL cell lines), the LC95 was about 1000 nM. Further, the “latent viral protein expression” value in data set [1] is on record as “no reduction was seen in latent viral protein expression”. Moreover, the “DNA synthesis (EdU incorporation)” value in data set [2] is listed as “complete inhibition of DNA synthesis”. Besides, the toxicities from treatment result in data set [3] (150 or 300 mg/kg/day) is reported as “no obvious toxicities”. Moreover, the “tumor response by in vivo luciferase imaging” value in data set [3] (150 or 300 mg/kg/day for 9 days, within three days of treatment) is “striking and immediate regression of the implanted xenograft”. Moreover, the progression-free survival result in data set [3] (150 or 300 mg/kg/day, p<0.0001, 100 days) is given as “startling protective effect”. Moreover, the overall survival result in data set [3] (low dose and high dose versus untreated) is “significant prolonged overall survival”.

Source of the values: US20190225643A1, “NOVEL NUCLEOSIDE ANALOGS AND USE THEREOF IN THERAPEUTIC TREATMENT” (CORNELL UNIVERSITY, priority 2016, published 2019).
